According to patent publication US6417160B1, “Methods for increasing schwann cell survival” (priority 1997, dated 2002):

Columns and labels:
[1] = tested on: PD2 (non-proliferating) and PD15 (proliferating) Schwann cells; assay: Schwann cell survival in high glucose media (counts of intact nuclei); assay type: cell-based, rat; conditions: IGF-1 1 ng/ml, NAC 10^−7 M, DMD 10^−9 M; for Schwann cell survival: 24 hr of high glucose exposure (40 mM); for number of cells (intact nuclei relative to 5.5 mM glucose control): 40 mM glucose, 2 hr
PD2 Schwann cells = assay: Mitochondrial membrane potential (ΔΨM) by CMTMR confocal imaging; assay type: cell-based, rat; conditions: 40 mM glucose, DMD 10^−9 M; for distribution frequencies of ΔΨM (CMTMR intensity): 6 h, CsA 10^−7, ATR 1 mM; for CMTMR fluorescent intensity (confocal images): 6 hr, CsA 10^−7 M, ATR 1 mM
Excerpt: As has been previously reported in a number of models of apoptosis, apoptotic cell death is often preceded by a fall in mitochondrial membrane potential (ΔΨM). […] This dye is preferentially taken up by actively respiring mitochondria where it binds to protein thiol groups within the mitochondrial matrix and is retained following aldehyde fixation. The CMTMR fluorescence intensity therefore represents the highest level of negativity difference (i.e., the greatest ΔΨM) in the mitochondria during the period of dye exposure prior to fixation.
A Leica true confocal scanning (TCS) microscope was used to image the cells. A pinhole aperture of 20 is maintained with constant laser and photo-detector power settings and an excitation filter wavelength of 488 nm and a band-pass emission filter of 600/30 nm. Each image was scanned using an oil-immersion, 100×, 1.4 N.A. objective at 512 by 512 by 8 bits per pixel resolution, background offset of −1 and line averaged 32 times. The confocal images were saved as grey-scale tagged image file format (TIFF) files for analysis and recolourization. The Metamorph™ (Universal Imaging, Ltd.) image capture and analysis system for Windows was used to measure the intensity of CMTMR fluorescence in individual mitochondria. In each mitochondrion, no fewer than two regions were defined by a box measuring 9 pixels square each. The average intensity per pixel within each defined region is measured and automatically logged to a Microsoft Excel spreadsheet for analysis.
At the end of the indicated time point, Schwann cells so treated were incubated with CMTMR to estimate ΔΨM, fixed with 4% paraformaldehyde, and processed for the immunocytochemical co-localization of hexokinase (Type 1) to mitochondria. The fixed coverslips were blocked for 1 hr with 10% normal donkey serum to minimize non-specific binding, and incubated with a mouse monoclonal antibody raised against hexokinase (Type 1; Chemicon) at a dilution of 1:500 overnight at 4° C. Coverslips were washed in PBS and incubated with a Cy5 conjugated donkey anti-mouse (Jackson Immuno Research) at a dilution of 1:250 for 1 hr at room temperature. Coverslips were then washed with PBS and mounted with Aquamount (BDH).

Schwann cells = assay: NO production by Griess reaction (secreted nitrite in culture medium); assay type: cell-based, rat; conditions: for NO2 production: Schwann cells exposed to 40 mM glucose, 24 hr, DMD 10^−9 M, L-NIL 10^−4 M
Description: To determine the role of NO signaling in high glucose induced Schwann cell apoptosis, PD2 and PD15 Schwann cells were cultured, as described, in the presence of 5.5 or 40 mM glucose for 24 hr. Cells exposed to 40 mM glucose were also treated with DMD (10^−9 M), the NOS inhibitor L-NIL (10^−4 M) or an inhibitor of the constitutive, Ca^++-dependent isoform of NOS (cNOS), S-methyl-thiocitruline (SMTC, 10^−4 M). […] PD2 Schwann cells were also treated with increasing amounts of TNF-α […] plus IFN-γ (50, 100, 250, and 500U) for 24 hr to establish a dose-response threshold for the assay.
The Griess reaction, which measures secreted nitrite (NO2) in the culture medium, was used to investigate NO production by Schwann cells.

[2] = Cell rescue with P450 inhibitor Proadifen (animal and cell-culture studies); conditions: P450 inhibitor Proadifen co-administered
PC12 cells = conditions: cited from earlier work
[3] = tested on: cultured cerebellar granule cells; conditions: cited from earlier work
[4] = tested on: neuronal and non-neuronal cells; conditions: several systems; cited from earlier work
[5] = Hepatic metabolism after oral administration
[6] = Stability of deprenyl versus pH of the medium; conditions: pH about 3-5 versus pH about 7

Compound | Schwann cell survival [1] | number of cells (intact nuclei relative to 5.5 mM glucose control) ([1]; non-proliferating cells) | number of cells (intact nuclei relative to 5.5 mM glucose control) ([1]; proliferating cells) | CMTMR fluorescent intensity (confocal images) (PD2 Schwann cells) | also measured
C#CCNC(C)Cc1ccccc1 (single isomer, unassigned; (-)) [DMD, (−)-desmethyldeprenyl] | significantly improve Schwann cell survival | significant increase | significant increase | comparable levels of CMTMR fluorescent intensity compared with cells in base media | distribution frequencies of ΔΨM (CMTMR intensity) (PD2 Schwann cells): restored ΔΨM distributions comparable with the base media; NO2 production (Schwann cells): slight decrease; cell-rescuing activity on administration of Proadifen [2]: does not block the cell-rescuing activity
cyclosporin A [CsA] | – | – | – | enhanced brightness | –
C#CCN(C)[C@H](C)Cc1ccccc1 [(−)-deprenyl, R-(−)-N,α-Dimethyl-N-2-propynyl phenethylamine] | – | – | – | – | trophic withdrawal induced drop in ΔΨM (PC12 cells): prevent; AraC induced drop in ΔΨM [3]: prevent; apoptotic death of neuronal and non-neuronal cells [4]: reduce the apoptotic death; metabolites formed by the liver [5]: (−)-desmethyldeprenyl, as well as (−)-methamphetamine and (−)-amphetamine; stability [6]: more stable at a pH in the range of about 3-5 than at a pH of about 7; cell-rescuing activity on administration of Proadifen [2]: reduces the ability of (−)-deprenyl to prevent cell death
IGF-1: insulin-dependant growth factor (IGF); anti-apoptotic agent added to high glucose media | significantly improve Schwann cell survival | significant increase | significant increase | – | –
CC(=O)N[C@@H](CS)C(=O)O [NAC, N-acetyl-L-cysteine] | significantly improve Schwann cell survival | significant increase | significant increase | – | –
CC(=N)NCCCC[C@H](N)C(=O)O [L-NIL] | – | – | – | – | stimulation of NO2 release by TNF-α/IFN-γ (Schwann cells; L-NIL added): prevented; NO2 production (Schwann cells): slight decrease
C=C1[C@@H]2CC[C@H]3[C@]4(C)C[C@H](O[C@@H]5O[C@H](CO)[C@@H](OS(=O)(=O)O)[C@H](OS(=O)(=O)O)[C@H]5OC(=O)CC(C)C)C[C@@H](C(=O)O)[C@H]4CC[C@]3(C2)[C@H]1O [ATR, atractyloside] | – | – | – | decreased CMTMR brightness | distribution frequencies of ΔΨM (CMTMR intensity) (PD2 Schwann cells): pronounced shift to the left
